Where two headings read alike, the source gives them in different places.

One may read the EC50 as the midpoint of the concentration-response curve. Broadly, the IC50 is the point on the concentration scale where inhibition reaches its midpoint. A lower IC50 goes with inhibition by little substance.

The subject of data set [1] is Aβ oligomer induced changes in membrane trafficking in 21 DIV primary rodent neuronal cultures. Briefly: Membrane trafficking assay (MTT) in primary neuronal cultures treated with oligomeric Aβ. In kind it is cell-based. The settings on record: read-out: MTT ASSAY EC50. The method, then: Seven drug candidates (A0101-A0107) (FIG. 2) were tested in a primary cell biological screening assay capable of measuring Aβ oligomer induced changes in membrane trafficking in 21 DIV primary rodent neuronal cultures (see Izzo et al., PLoS ONE 9(11):e111899, 2014). Briefly, cultures were treated with either oligomeric Aβ or oligomeric Aβ plus a candidate compound for 24 hours. Non-Aβ treated cells served as a negative control. Next, a non-membrane permeable dye (MTT) was added to the dishes for 1 hour, during which time the dye can be internalized by endocytosis. At the end of the hour, the dye containing media was removed, the dishes were rinsed extensively with isotonic buffer, and finally, the washed cells were extracted with a Triton X-100 buffer to solubilize membranes and release the dye, which is quantitated.

Data set [2] in a line: Caco-2 A-B and B-A permeability test. In kind it is in vitro ADME. The settings on record: human. The method, then: Subsequently, Caco-2 A-B and B-A permeability tests (pH 7.4) were performed on the […]-107 molecules in order to assess their human intestinal permeability and drug efflux. This assay measures the […] rate of transport of a compound across the Caco-2 cell line that is derived from a human colon carcinoma. The cells have characteristics that resemble intestinal epithelial cells such as the formation of a polarized monolayer, well-defined brush border on the apical surface and intercellular junctions.

The target in data set [3] is Human Ether-á-go-go-Related-Gene channel (hERG) (Homo sapiens, UniProt Q12809). The data set can be described thus: hERG cellular patch-clamp assay (cardiac toxicity). (In general: Block of hERG is tested as a sign of cardiac risk.)
Sequence of Human Ether-á-go-go-Related-Gene channel (hERG) (Q12809 whole entry): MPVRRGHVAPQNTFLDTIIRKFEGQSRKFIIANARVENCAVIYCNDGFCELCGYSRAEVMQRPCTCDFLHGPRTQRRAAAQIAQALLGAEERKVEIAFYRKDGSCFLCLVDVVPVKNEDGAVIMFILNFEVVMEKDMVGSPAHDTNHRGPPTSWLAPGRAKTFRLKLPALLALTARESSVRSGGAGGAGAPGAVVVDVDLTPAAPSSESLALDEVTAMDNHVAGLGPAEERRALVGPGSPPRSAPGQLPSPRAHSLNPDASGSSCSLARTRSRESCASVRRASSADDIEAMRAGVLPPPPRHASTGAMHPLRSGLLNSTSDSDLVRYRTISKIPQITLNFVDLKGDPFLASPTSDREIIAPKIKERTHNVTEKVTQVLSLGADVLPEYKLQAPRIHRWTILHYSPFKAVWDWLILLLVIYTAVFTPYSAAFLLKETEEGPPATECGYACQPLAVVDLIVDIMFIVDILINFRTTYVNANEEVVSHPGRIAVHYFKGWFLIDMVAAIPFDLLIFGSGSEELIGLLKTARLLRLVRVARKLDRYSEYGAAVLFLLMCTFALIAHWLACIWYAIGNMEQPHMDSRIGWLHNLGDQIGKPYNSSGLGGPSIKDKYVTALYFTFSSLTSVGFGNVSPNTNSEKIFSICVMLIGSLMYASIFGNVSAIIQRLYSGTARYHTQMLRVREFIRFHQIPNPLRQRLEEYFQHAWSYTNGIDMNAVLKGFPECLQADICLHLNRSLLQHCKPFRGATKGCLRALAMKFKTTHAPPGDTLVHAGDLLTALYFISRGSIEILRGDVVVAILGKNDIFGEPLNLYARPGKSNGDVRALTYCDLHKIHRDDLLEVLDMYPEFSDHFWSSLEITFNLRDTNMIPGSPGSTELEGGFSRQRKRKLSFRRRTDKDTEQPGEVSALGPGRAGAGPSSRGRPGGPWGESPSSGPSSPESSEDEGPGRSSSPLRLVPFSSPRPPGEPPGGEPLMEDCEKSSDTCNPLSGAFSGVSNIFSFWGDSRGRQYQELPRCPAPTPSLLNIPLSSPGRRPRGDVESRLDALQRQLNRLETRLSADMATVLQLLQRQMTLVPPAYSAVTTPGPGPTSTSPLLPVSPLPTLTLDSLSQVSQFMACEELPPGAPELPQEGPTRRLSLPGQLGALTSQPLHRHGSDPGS
Source text: Contract laboratories provided screening of hERG ion channel cell lines as an indicator of cardiac safety. […] Cellular “patch-clamp” assays provide the data required by ICH guidelines.
The target of data set [4] is wild type Aβ42 (Homo sapiens, UniProt P05067). The data set can be described thus: IMS-MS assay for Aβ42 oligomer formation (arrival time distributions). The settings on record: for Aβ42 wt dodecamer formation (overall conclusion): 10 μM in 10 mM ammonium acetate. The procedure: A physiologically relevant solution of Aβ42 and a drug candidate was incubated for varying periods of time and then loaded into a special spray capillary and the solution nano-electrosprayed, captured by an ion funnel, transported, dehydrated and continuously fed into a quadrapole mass analyser, and detected. This process yielded a mass spectrum. In order to obtain either structural or oligomeric information, the ions were next stored at the end of the funnel and then pulse injected at low energy into a drift cell filled with helium gas and subjected to a low electric field to transport the ions through the cell. The quadrapole is set to pass a particular mass to charge ratio (m=z), and an arrival time distribution (ATD) of the ions at this m=z is obtained at the detector (see, e.g., Bernstein et al., Journal of the American Chemical Society, 127(7):2075-2084, 2005). All molecules were at a concentration of 10 μM in 10 mM ammonium acetate.
Sequence of wild type Aβ42 (P05067 672-713 limits assumed): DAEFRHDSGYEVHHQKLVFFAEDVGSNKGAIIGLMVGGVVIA
By collecting Arrival Time Distributions (ATDs) of each of these charge states, ions of the same mass-to-charge (m/z) ratio were separated by their size and shape.
Using kinetic theory and parameters of the experiment, arrival times are related to an ion's mobility in the drift cell, which is inversely proportional to the ion's collision cross section. Oligomer formation is shown for dimer (n=2) up to dodecamer (n=12) for the z/n=−5/2 charge state.
For example, the peak in z/n=−3 ATD with a collision cross section of 698 Å^2 corresponds to a less compact solution-phase monomer structure. The peak of 642 Å^2 corresponds to a more compact gas phase structure.

Setting [5] is: Caco-2, apical to basolateral, pH 7.4, read-out: A-B perm.
[6] abbreviates: Caco-2, basolateral to apical, pH 7.4, read-out: B-A perm.

Regarding `CN(C)Cc1ccc(CNCc2ccc3c(c2)OCCO3)cc1` [AC0102, (2,3-dihydro-1,4-benzodioxin-6-ylmethyl)({4[(dimethylamino)methyl]-phenyl}methyl)amine], the concentration giving a half-maximal response (EC50) in data set [1] was 3.5 µM. In addition, the Papp A→B in data set [2] (setting [5]) was 30 ×10⁻⁶ cm/s. Moreover, the Papp B→A in data set [2] (setting [6]) is 4.5 ×10⁻⁶ cm/s. Besides, the 50% inhibitory concentration (IC50) in data set [3] is more than 10 µM.

In the case of `N#Cc1cccc(CNCc2ccc(CN3CCOCC3)cc2)c1` [AC0104, 3-[({[4-(morpholin-4 ylmethyl)phenyl]methyl}amino)methyl]benzonitrile], the EC50 in data set [1] was 0.7 µM. For the same compound, in data set [2] (setting [5]), the Papp A→B was 59.4 ×10⁻⁶ cm/s. The Papp B→A in data set [2] (setting [6]) amounted to 13.9 ×10⁻⁶ cm/s. The IC50 in data set [3] was more than 10 µM.

Turning to `C[C@@H](NCCCc1cccc(C(F)(F)F)c1)c1cccc2ccccc12` [Cinacalcet, reference compound], in data set [4] (IMS-MS), the “Aβ42 wt dodecamer formation (overall conclusion)” value is given as “did not inhibit”.

In the case of `Cc1cc(CN2CC=C(c3ccc(O)cc3)CC2)no1` [AC0106, 4-{1-[(5-methyl-1,2-oxazol-3-yl)methyl]-1,2,3,6tetrahydropyridin-4-yl}phenol], in data set [1], the EC50 worked out at 1 µM. Moreover, in data set [2] (setting [5]), the Papp A→B is 74.4 ×10⁻⁶ cm/s. For the same compound, in data set [2] (setting [6]), the Papp B→A came to 42.3 ×10⁻⁶ cm/s. In addition, the IC50 in data set [3] is more than 10 µM.

`N#Cc1ccc(CNCc2cccc(CN3CCCC3)c2)cc1` [AC0107, 4-[({[3-(pyrrolidin-1-ylmethyl)phenyl]methyl}amino)methyl]benzonitrile]: in data set [1], the EC50 was 0.45 µM. In addition, in data set [2] (setting [5]), the Papp A→B amounted to 18.4 ×10⁻⁶ cm/s. The Papp B→A in data set [2] (setting [6]) worked out at 6.5 ×10⁻⁶ cm/s. Moreover, the “relative amounts of earlier arriving structures in z/n=−4 ATD” value in data set [4] (1:10 Aβ42 wt to compound, day 2) is reported as “reduces”. The “wild type Aβ42 dodecamer formation” value in data set [4] (1:10 Aβ42 wt to compound, day one) is “inhibited”. Moreover, in data set [4] (IMS-MS), the Aβ42 hexamer growth entry is “slowing hexamer growth” and the “Aβ42 wt dodecamer formation (overall conclusion)” value is reported as “inhibitor of Aβ42 wt dodecamer formation”. Also, the “dodecamer formation in z/n=−5/2 ATD” value in data set [4] (after 29 hours) is “still inhibited”. Moreover, the “earlier arriving structures in z/n=−3 ATD” value in data set [4] (between 26 and 30 hours incubation time) is reported as “disappear”. For the same compound, the IC50 in data set [3] is more than 10 µM.

Take `CC(=O)Nc1ccc(CNCCc2cccc(Cl)c2)cc1` [AC0101, N-[4-({[2-(3-chlorophenyl)ethyl]amino}methyl)phenyl]acetamide]: in data set [1], the concentration for a half-maximal effect (EC50) stood at 3.9 µM. Moreover, the Papp A→B in data set [2] (setting [5]) was found to be 101 ×10⁻⁶ cm/s. Besides, in data set [2] (setting [6]), the Papp B→A came to 41.6 ×10⁻⁶ cm/s. In data set [3], this compound showed a half-maximal inhibitory concentration (IC50) of 8 µM. Further, the “hERG inhibition (in words)” value in data set [3] (summary of Table 2, 4th column) is reported as “moderate potency”.

In data set [2] (Caco-2, pH 7.4), `CNC(=C[N+](=O)[O-])NCCSCc1ccc(CN(C)C)o1` [ranitidine, reference compound] gave a Papp A→B of 0.7 ×10⁻⁶ cm/s and a Papp B→A of 3.5 ×10⁻⁶ cm/s.

For `CN(C)C(=O)C(c1ccccc1)N1CCN(c2ccc(O)cc2)CC1` (centres unmarked) [AC0103, 2-[4-(4-hydroxyphenyl)piperazin-1-yl]-N,N-dimethyl-2 phenylacetamide], the concentration giving a half-maximal response (EC50) in data set [1] was 1.3 µM. For the same compound, the Papp A→B in data set [2] (setting [5]) stood at 61.6 ×10⁻⁶ cm/s. Also, the Papp B→A in data set [2] (setting [6]) was 39.7 ×10⁻⁶ cm/s. In data set [3], this compound returned a half-maximal inhibitory concentration (IC50) of more than 10 µM.

As for `COc1cc2c(c(OC)c1OC)-c1ccc(OC)c(=O)cc1[C@@H](NC(C)=O)CC2` [colchicine, reference compound], the Papp A→B in data set [2] (setting [5]) is 0.1 ×10⁻⁶ cm/s. For the same compound, the Papp B→A in data set [2] (setting [6]) stood at 13.9 ×10⁻⁶ cm/s.

In the case of `CC(C)NCC(O)COc1cccc2ccccc12` (centres unmarked) [propranolol, reference compound], the Papp A→B in data set [2] (setting [5]) worked out at 60.6 ×10⁻⁶ cm/s. Further, the Papp B→A in data set [2] (setting [6]) came out at 24.2 ×10⁻⁶ cm/s.

The record behind these values is patent US11827582B2, “Substituted amines as disrupters of ABETA42 oligomer formation” (ACELOT, INC., priority 2017, dated 2023).
